Patent US20250051347A1, “BIFUNCTIONAL CHIMERIC HETEROCYCLIC COMPOUND AND USE THEREOF AS ANDROGEN RECEPTOR DEGRADER” (Hinova Pharmaceuticals, Inc., priority 2021, published 2025)

Molecular target: T1, androgen receptor (AR) splicing variant AR-v7 (Homo sapiens, UniProt P10275)
T1 construct: The degradation activity of compounds on AR-v7 in 22RV1 cells; host or cells: 22RV1 cells
T1 sequence (P10275 1-644 isoform P10275-3): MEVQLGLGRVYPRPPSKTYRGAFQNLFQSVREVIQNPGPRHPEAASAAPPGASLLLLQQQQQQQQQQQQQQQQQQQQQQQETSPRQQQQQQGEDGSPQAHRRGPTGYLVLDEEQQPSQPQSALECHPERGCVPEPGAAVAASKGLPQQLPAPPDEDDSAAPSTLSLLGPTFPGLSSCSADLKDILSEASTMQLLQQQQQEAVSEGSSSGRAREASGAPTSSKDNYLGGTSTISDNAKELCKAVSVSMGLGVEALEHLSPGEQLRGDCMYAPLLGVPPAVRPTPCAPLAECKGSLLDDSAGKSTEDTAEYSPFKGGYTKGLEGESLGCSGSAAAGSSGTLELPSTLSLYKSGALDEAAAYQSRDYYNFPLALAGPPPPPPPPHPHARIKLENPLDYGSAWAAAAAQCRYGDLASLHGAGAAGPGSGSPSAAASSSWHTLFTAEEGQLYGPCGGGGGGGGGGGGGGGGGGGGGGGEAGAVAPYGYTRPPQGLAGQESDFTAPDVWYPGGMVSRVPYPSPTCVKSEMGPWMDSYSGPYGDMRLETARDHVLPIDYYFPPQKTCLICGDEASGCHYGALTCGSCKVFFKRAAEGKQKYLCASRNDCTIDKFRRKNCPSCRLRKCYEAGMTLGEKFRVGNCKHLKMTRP
Experiment: Degradation activity on androgen receptor splicing variant AR-v7 in 22RV1 cells (ELISA)
Type: cell-based
Conditions: AR-v7 degradation in 22RV1 cells, 48 h, class symbols

Row | SMILES | DC50
1 | NC(=O)c1noc(COc2ccc(C3(c4ccc(OCCCNc5ccc6c(c5)C(=O)N(C5CCC(=O)NC5=O)C6=O)cc4)CCC3)cc2)n1 (stereo not drawn) [Example 352, 5-((4-(1-(4-(3-((2-(2,6-dioxopiperidin-3-yl)-1,3-dioxoisoindolin-5-yl)amino)propoxy)phenyl)cyclobutyl)phenoxy)methyl)-1,2,4-oxadiazol-3-carbonylamine] | 11 to 100 nM
2 | Cc1nc(-c2ccc(Oc3ccc(C(C)(C)c4ccc(OC5CC(Nc6ccc7c(c6)C(=O)N(C6CCC(=O)N(C)C6=O)C7=O)C5)cc4)cc3)nn2)no1 (stereo not drawn) [Example 335, 5-((1r,3r)-3-(4-(2-(4-((6-(5-methyl-1,2,4-oxadiazol-3-yl)pyridazine-3-yl)oxy)phenyl)propan-2-yl)phenoxy)cyclobutyl)amino)-2-(1-methyl-2,6-dioxopiperidin-3-yl)isoindolin-1,3-dione] | 101 to 1000 nM
3 | CC(C)(c1ccc(CNc2ccc3c(c2)C(=O)N(C2CCC(=O)NC2=O)C3=O)cc1)c1ccc(OCc2ccnc(N3CC4(COC4)C3)n2)cc1 (stereo not drawn) [Example 507, 5-((4-(2-(4-((2-(2-oxa-6-azaspiro[3.3]heptan-6-yl)pyrimidin-4-yl)methoxy)phenyl)propan-2-yl)benzyl)amino)-2-(2,6-dioxopiperidin-3-yl)isoindolin-1,3-dione] | 11 to 100 nM
4 | CC1(CNc2nccc(COc3ccc(C(C)(C)c4ccc(O[C@H]5C[C@@H](Nc6ccc7c(c6)C(=O)N(C6CCC(=O)NC6=O)C7=O)C5)cc4)cc3)n2)CNC1 (stereo partly drawn) [Example 457] | 11 to 100 nM
5 | CC(C)(c1ccc(Oc2cnc(C(O)C3CCC3)nc2)cc1)c1ccc(O[C@H]2C[C@H](Nc3ccc4c(c3)C(=O)N(C3CCC(=O)NC3=O)C4=O)C2)cc1 (stereo partly drawn) [Example 261] | < 10 nM
6 | CN1CCN(c2ncc3c(n2)CN(c2ccc(C(C)(C)c4ccc(O[C@H]5C[C@H](Nc6ccc7c(c6)C(=O)N(C6CCC(=O)NC6=O)C7=O)C5)cc4)cc2)CC3)CC1 (stereo partly drawn) [Example 192, 2-(2,6-dioxopiperidin-3-yl)-5-((1r,3r)-3-(4-(2-(2-(4-methylpiperazin-1-yl)-5,8-dihydropyrido[3,4-d]pyrimidin-7(6H)-phenyl)propan-2-ylphenoxy)cyclobutyl)amino)isoindolin-1,3-dione] | 11 to 100 nM
7 | CC(O)c1ccc(Oc2ccc(C(C)(C)c3ccc(O[C@H]4C[C@@H](Nc5ccc6c(c5)C(=O)N(C5CCC(=O)NC5=O)C6=O)C4)cc3)cc2)cn1 (stereo partly drawn) [Example 524] | 11 to 100 nM
8 | CC(C)(c1ccc(OCCCCCCCCOCCCCNc2ccc3c(c2)C(=O)N(C2CCC(=O)NC2=O)C3=O)cc1)c1ccc(OCc2ccnc(NS(C)(=O)=O)n2)cc1 (stereo not drawn) [Example 22, N-(4-((4-(2-(4-((8-(4-((2-(2,6-dioxopiperidin-3-yl)-1,3-dioxoisoindolin-5-yl)amino)butoxy)octyl)oxy)phenyl)propan-2-yl)phenoxy)methyl)pyrimidin-2-yl)methanesulfonamide] | 101 to 1000 nM
9 | CC(C)(c1ccc(OCc2nc(N3CC4(COC4)C3)ncc2F)cc1)c1ccc(O[C@H]2C[C@@H](Nc3ccc4c(c3)C(=O)N(C3CCC(=O)NC3=O)C4=O)C2)cc1 (stereo partly drawn) [Example 199] | 11 to 100 nM
10 | Cc1nc(-c2ccc(Oc3ccc(C(C)(C)c4ccc(O[C@H]5C[C@H](Nc6ccc7c(c6)C(=O)N(C6CCC(=O)NC6=O)C7=O)C5)cc4)cc3)nc2)no1 (stereo partly drawn) [Example 546] | 11 to 100 nM
11 | CC(C)(c1ccc(OCCCOCCCOCCCNc2ccc3c(c2)C(=O)N(C2CCC(=O)NC2=O)C3=O)cc1)c1ccc(OCc2ccnc(NS(C)(=O)=O)n2)cc1 (stereo not drawn) [Example 20, N-(4-((4-(2-(4-(3-(3-(3-((2-(2,6-dioxopiperidin-3-yl)-1,3-dioxoisoindolin-5-yl)amino)propoxy)propoxy)propoxy)phenyl)propan-2-yl)phenoxy)methyl)pyrimidin-2-yl)methanesulfonamide] | 1000 to 5000 nM
12 | CC(C)(c1ccc(OCc2ccnc(N3CC4(COC4)C3)n2)cc1)c1ccc(OC2CCC(Nc3ccc4c(c3)C(=O)N(C3CCC(=O)NC3=O)C4=O)C2)cc1 (stereo not drawn) [Example 563, 5-((3-(4-(2-(4-((2-(2-oxa-6-azaspiro[3.3]heptan-6-yl)pyrimidin-4-yl)methoxy)phenyl)propan-2-yl)phenoxy)cyclopentyl)amino)-2-(2,6-dioxopiperidin-3-yl)isoindolin-1,3-dione] | 11 to 100 nM
13 | Cc1nc(-c2ncc(Oc3ccc(C(C)(C)c4ccc(OC5CC(Nc6cc7c(cn6)C(=O)N(C6CCC(=O)NC6=O)C7=O)C5)cc4)cc3)cn2)no1 (stereo not drawn) [Example 530, 2-(2,6-dioxopiperidin-3-yl)-6-((1r,3r)-3-(4-(2-(4-((2-(5-methyl-1,2,4-oxadiazol-3-yl)pyrimidin-5-yl)oxy)phenyl)propan-2-yl)phenoxy)cyclobutyl)amino)-1H-pyrrolo[3,4-c]pyridin-1,3(2H)-dione] | 101 to 1000 nM
14 | Cc1noc(-c2ncc(Oc3ccc(C(C)(C)c4ccc(O[C@H]5C[C@@H](Nc6ccc7c(c6)C(=O)N(C6CCC(=O)NC6=O)C7=O)C5)cc4)cc3)cn2)n1 (stereo partly drawn) [Example 263] | 11 to 100 nM
15 | CC(C)(c1ccc(OCc2nc(-n3nccn3)ccc2F)cc1)c1ccc(O[C@H]2C[C@H](Nc3ccc4c(c3)C(=O)N(C3CCC(=O)NC3=O)C4=O)C2)cc1 (stereo partly drawn) [Example 284] | 11 to 100 nM
16 | CC(C)(c1ccc(OCCNc2cccc3c2C(=O)N(C2CCC(=O)NC2=O)C3=O)cc1)c1ccc(OCc2ccnc(NS(C)(=O)=O)n2)cc1 (stereo not drawn) [Example 53, N-(4-((4-(2-(4-(2-((2-(2,6-dioxopiperidin-3-yl)-1,3-dioxoisoindolin-4-yl)amino)ethoxy)phenyl)isopropan-2-yl)phenoxy)methyl)pyrimidin-2-yl)methanesulfonamide] | 1000 to 5000 nM
17 | CN(C)C1CCCN(c2nccc(COc3ccc(C(C)(C)c4ccc(O[C@H]5C[C@@H](Nc6ccc7c(c6)C(=O)N(C6CCC(=O)NC6=O)C7=O)C5)cc4)cc3)n2)C1 (stereo partly drawn) [Example 404] | 11 to 100 nM
18 | CC(C)(c1ccc(OCCCOCCCNc2cccc3c2C(=O)N(C2CCC(=O)NC2=O)C3=O)cc1)c1ccc(OCc2ccnc(NS(C)(=O)=O)n2)cc1 (stereo not drawn) [Example 17] | 1000 to 5000 nM
19 | Cc1nnc(-c2ccc(Oc3ccc(C(C)(C)c4ccc(O[C@H]5C[C@H](Nc6ccc7c(c6)C(=O)N(C6CCC(=O)NC6=O)C7=O)C5)cc4)cc3)nc2)o1 (stereo partly drawn) [Example 216] | 11 to 100 nM
20 | CC(C)(c1ccc(Oc2cc(-n3nccn3)ncn2)cc1)c1ccc(O[C@H]2C[C@@H](Nc3ccc4c(c3)C(=O)N(C3CCC(=O)NC3=O)C4=O)C2)cc1 (stereo partly drawn) [Example 577] | 11 to 100 nM
21 | CC(=O)c1nccc(COc2ccc(C(C)(C)c3ccc(OCCCCCCCCOCCCCNc4ccc5c(c4)C(=O)N(C4CCC(=O)NC4=O)C5=O)cc3)cc2)n1 (stereo not drawn) [Example 136, 5-((4-((8-(4-(2-(4-((2-acetylpyrimidin-4-yl)methoxy)phenyl)propan-2-yl)phenoxy)octyl)oxy)butyl)amino)-2-(2,6-dioxopiperidin-3-yl)isoindolin-1,3-dione] | 101 to 1000 nM
22 | CC(C)(c1ccc(OCc2nccc(N3CC4(COC4)C3)n2)cc1)c1ccc(O[C@H]2C[C@@H](Nc3ccc4c(c3)C(=O)N(C3CCC(=O)NC3=O)C4=O)C2)cc1 (stereo partly drawn) [Example 545] | 11 to 100 nM
23 | CC(C)(c1ccc(Oc2ncc(I)cn2)cc1)c1ccc(O[C@H]2C[C@@H](Nc3ccc4c(c3)C(=O)N(C3CCC(=O)NC3=O)C4=O)C2)cc1 (stereo partly drawn) [Example 316] | 11 to 100 nM
24 | Cc1nc(-c2ccc(Oc3ccc(C(C)(C)c4ccc(O[C@H]5C[C@@H](Nc6ccc7c(c6)C(=O)N(C6CCC(=O)NC6=O)C7=O)C5)cc4)cc3)nc2)no1 (stereo partly drawn) [Example 213] | 11 to 100 nM
25 | CC(C)(c1ccc(Oc2ccc(-n3nccn3)nc2)cc1)c1ccc(OC2CC(Nc3ccc4c(c3)CN(C3CCC(=O)NC3=O)C4=O)C2)cc1 (stereo not drawn) [Example 93, 3-(5-((1r,3r)-3-(4-(2-(4-((6-(2H-1,2,3-triazol-2-yl)pyridin-3-yl)oxy)phenyl)propan-2-yl)phenoxy)cyclobutyl)amino)-1-oxoisoindolin-2-yl)piperidin-2,6-dione] | 101 to 1000 nM

Same assay, conditions: AR-v7 degradation in 22RV1 cells, 48 h, numeric values

Row | SMILES | DC50
26 | CC(C)(c1ccc(OCc2ccnc(NS(C)(=O)=O)n2)cc1)c1ccc(OC2CCN(CCCCCOCCCCNc3ccc4c(c3)C(=O)N(C3CCC(=O)NC3=O)C4=O)CC2)cc1 (stereo not drawn) [Example 15] | > 10000 nM
27 | C=CC(=O)Nc1nccc(COc2ccc(C(C)(C)c3ccc(OCCCCCCCCOCCN4CCN(c5ccc6c(c5)C(=O)N(C5CCC(=O)NC5=O)C6=O)CC4)cc3)cc2)n1 (stereo not drawn) [Example 227] | > 10000 nM
28 | CC(C)(c1ccc(OCCCCCCCCOCCCCNc2cccc3c2C(=O)N(C2CCC(=O)NC2=O)C3=O)cc1)c1ccc(OCc2ccnc(NS(C)(=O)=O)n2)cc1 (stereo not drawn) [Example 21, N-(4-((4-(2-(4-((8-(4-((2-(2,6-dioxopiperidin-3-yl)-1,3-dioxoisoindolin-4-yl)amino)butoxy)octyl)oxy)phenyl)propan-2-yl)phenoxy)methyl)pyrimidin-2-yl)methanesulfonamide] | 5770 nM
29 | CC(=O)c1nccc(COc2ccc(C(C)(C)c3ccc(OC4CCN(c5ccc6c(c5)C(=O)N(C5CCC(=O)NC5=O)C6=O)CC4)cc3)cc2)n1 (stereo not drawn) [Example 557] | > 10000 nM
30 | CC(C)(c1ccc(OCCCCCNc2ccc3c(c2)C(=O)N(C2CCC(=O)NC2=O)C3=O)cc1)c1ccc(OCc2ccnc(NS(C)(=O)=O)n2)cc1 (stereo not drawn) [Example 38, N-(4-((4-(2-(4-((5-((2-(2,6-dioxopiperidin-3-yl)-1,3-dioxoisoindolin-5-yl)amino)pentyl)oxy)phenyl)propan-2-yl)phenoxy)methyl)pyrimidin-2-yl)methanesulfonamide] | > 5000 nM
